Measured values reported in US11279966B2, “Method for identifying compound for inhibiting an activity of a histone lysine demethylase” (NATIONAL TSING HUA UNIVERSITY, priority 2014, dated 2022).

Experiments:
KDM4A = target: T1, KDM4A (Homo sapiens, UniProt O75164); experiment: Formaldehyde dehydrogenase-coupled demethylase assay, KDM4A; assay type: biochemical; parameters: Demethylase Residual Activity (%): concentration or dose not given beside the values; details: for Demethylase Residual Activity (%): FDH-coupled assay
T1 construct: Human KDM4B 1-348 and KDM4A 1-347 were PCR amplified; His6 (N); made in house; host or cells: Escherichia coli BL21 (DE3)
T1 sequence (O75164 1-347): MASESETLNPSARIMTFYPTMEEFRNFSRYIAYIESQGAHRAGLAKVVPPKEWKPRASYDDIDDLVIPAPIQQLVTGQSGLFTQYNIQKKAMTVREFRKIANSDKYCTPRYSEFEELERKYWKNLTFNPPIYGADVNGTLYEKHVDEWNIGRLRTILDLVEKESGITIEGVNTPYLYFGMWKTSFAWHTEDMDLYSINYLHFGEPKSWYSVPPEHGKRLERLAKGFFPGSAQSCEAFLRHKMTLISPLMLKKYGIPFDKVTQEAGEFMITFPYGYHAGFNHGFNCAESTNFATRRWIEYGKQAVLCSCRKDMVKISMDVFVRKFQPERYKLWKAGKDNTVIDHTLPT

[1] = target: T2, FDH (formaldehyde dehydrogenase) (Pseudomonas putida, UniProt P46154); experiment: FDH residual activity (control for the coupling enzyme); assay type: biochemical; parameters: concentration or dose not given beside the values
T2 construct: purchased Sigma
T2 sequence (P46154 1-399): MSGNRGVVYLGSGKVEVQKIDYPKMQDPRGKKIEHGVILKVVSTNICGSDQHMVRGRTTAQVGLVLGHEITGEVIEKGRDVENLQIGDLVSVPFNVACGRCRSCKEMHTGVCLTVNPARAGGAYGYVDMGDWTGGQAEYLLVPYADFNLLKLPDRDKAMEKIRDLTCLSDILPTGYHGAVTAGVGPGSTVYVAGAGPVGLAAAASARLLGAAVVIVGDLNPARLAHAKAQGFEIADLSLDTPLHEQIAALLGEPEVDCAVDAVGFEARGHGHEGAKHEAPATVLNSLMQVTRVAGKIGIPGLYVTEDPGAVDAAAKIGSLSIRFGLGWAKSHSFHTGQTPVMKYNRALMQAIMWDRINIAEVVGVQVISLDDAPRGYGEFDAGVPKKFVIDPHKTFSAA

KDM4B = target: T3, KDM4B (Homo sapiens, UniProt O94953); experiment: Formaldehyde dehydrogenase-coupled demethylase assay, KDM4B; assay type: biochemical; parameters: concentration or dose not given beside the values; details: FDH-coupled assay
T3 construct: Human KDM4B 1-348 and KDM4A 1-347 were PCR amplified; His6 (N); made in house; host or cells: Escherichia coli BL21 (DE3)
T3 sequence (O94953 1-348): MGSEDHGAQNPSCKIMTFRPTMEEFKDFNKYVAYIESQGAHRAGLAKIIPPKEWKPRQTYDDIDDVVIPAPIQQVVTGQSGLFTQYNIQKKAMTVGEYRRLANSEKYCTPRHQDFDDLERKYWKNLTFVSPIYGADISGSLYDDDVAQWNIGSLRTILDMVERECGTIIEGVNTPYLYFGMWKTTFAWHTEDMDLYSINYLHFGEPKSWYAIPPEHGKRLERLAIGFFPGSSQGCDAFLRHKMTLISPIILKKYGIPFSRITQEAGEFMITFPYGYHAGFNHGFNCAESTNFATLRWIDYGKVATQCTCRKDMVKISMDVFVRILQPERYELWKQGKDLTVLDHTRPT

KDM4A/KDM4B [2] = details: calf thymus histones as substrate
KDM4A/KDM4B [3] = experiment: KDM4A/KDM4B inhibitory assay, results stated in words; assay type: biochemical, human
Description: Formaldehyde dehydrogenase-coupled demethylase assay was used to determine the demethylase activity and select the potent inhibitors. All inhibitors were dissolved in dimethyl sulfoxide (DMSO) at various concentrations, and added to the mixture that the final DMSO concentration is 5%. The reagents for demethylase reactions were dissolved in HEPES buffer (50 mM, pH 7.5), with the exception of Fe(II) solutions, which were made using (NH4)2Fe(SO4)2 dissolved in 20 mM HCl to make 400 mM stock solution. All the reagents were stored at −30° C. FDH, NAD+, H-TKQTARK(Me3)[…]-OH (TR-15, H33-17K9me3, Kelowna), DMSO, and KDM4B were added first to 96-well black immune plate (SPL Life Science) and incubated together on ice for 15 min. Then the plate was put into FLUOStar OPTIMA ELISA reader (BMG LABTECH) with 37° C., and the reaction was started by adding ascorbic acid (ascorbate), Fe(II), and α-ketoglutarate (AKG) to final concentration of 50 mM HEPES, pH 7.5, 2 μM of KDM4B, 5% DMSO, 0.01 U FDH (Sigma), 1 mM NAD+, 1 mM 2-OG, 2 mM ascorbate, and 50 μM Fe(II), various concentration of H3K9me3 peptide, and the final volume was 50 μl. Each reaction was incubated at 37° C. for 30 min and the production of NADH would be detected by using the fluorescence Ex 360/Em 470. […]

HeLa cells = details: read-out: cytotoxic IC50 in HeLa cells; cited from earlier work
LNCaP cells [4] = experiment: Microarray gene expression analysis of treated LNCaP cells; assay type: cell-based, human; details: 3 days
Description: LNCaP cells treated with mock and the 1,5-bis[(E)-2-(3,4-dichlorophenyl) ethenyl]-2,4-dinitrobenzene inhibitor for 3 days were harvested and the total RNA was extracted using Trizol reagent (Life Technologies, NY). Microarray analysis was performed by the University of California Davis Cancer Center Gene Expression Resource, using Affymetrix Human Genome U133A (HG-U133A) GeneChip arrays (Affymetrix, CA), which permit expression analysis of the entire Genbank RefSeq database. Array scanning and generation of raw signal data files were done with GeneChip Operating Software (Affymetrix). Subsequent data analysis was done by GeneSpring (Agilent Technologies, CA) and DAVID Bioinformatic Resources 6.7 (NIH).

LNCaP cells [5] = experiment: Flow cytometric analysis of DNA content (sub-G1, apoptosis) in LNCaP cells; assay type: cell-based, human; details: 50 μM, 3 days; mock 11.9%
Description: (§1) LNCaP cells are infected with lentivirus with control shRNA (control) and shKDM4A or shKDM4B as indicated (left panel). The qRT-PCR analysis is performed to evaluate the expression of KDM4s (right panel). […] LNCaP cells are treated with 1,5-bis[(E)-2-(3,4-dichlorophenyl) ethenyl]-2,4-dinitrobenzene for three days, and the viability is measured by viable cell count. SD is derived from biological triplicates. The level of H3K9me3 of 1,5-bis[(E)-2-(3,4-dichlorophenyl)ethenyl]-2,4-dinitrobenzene-treated cells (24 hr) is detected and quantified by AlphaView SA (Cell Biosciences Inc.). The level of H3K9me3 is shown by bar graph.
(§2) Total cell lysates were obtained by lysing the cell with buffer (50 mM Tris-HCl pH7.5, 150 mM NaCl, 0.5% Triton X-100, 10% glycerol, 1 mM EDTA, protease inhibitors) for 15 min on ice, followed by 10 min of sonication cycle (30 sec on, 30 sec off) on ice. The level of total histone H3 and trimethylated histone H3 Lys9 was analyzed by western blotting using anti-histone H3 and anti-H3K9me3 antibodies (Abcam, MA). Cells treated with mock and the inhibitor were harvested and fixed by 70% ethanol for >4 hours at −20° C., followed by propidium iodide (Sigma Aldrich) staining. The DNA content was analyzed by Becton Dickinson FACScan flow cytometry, and the sub-G1 population was quantified by WinMDI 2.9.

H3K9me3 in LNCaP cells = experiment: Cellular level of H3K9me3 in LNCaP cells, immunoblotting; assay type: cell-based, human
Description: as §1, §2

in vitro = assay type: cell-based; details: human
Description: as §1
Primary PrEC cells were purchased from Clonetics (Walkersville, Md.) and cultured in serum-free prostate epithelial cell growth medium following the vendor's directions. Cell lines RWPE1, LNCaP (LNCaP-FGC), CWR22Rv1 (22Rv1), VCaP, DU145, PC3 (all purchased from ATCC), and PNT2 (Sigma Aldrich, MO), were cultured under condition as recommended. CWR-R1 cell (40) and LNCaP derived C4-2, C4-2B cells were cultured in RPMI1640 medium containing 10% FBS.

SMILES	Demethylase Residual Activity (%) (KDM4A)	FDH Residual Activity (%) [1]	Demethylase Residual Activity (%) (KDM4B)	further results
O=C1C=Cc2ccccc2/C1=N/Nc1ccc([N+](=O)[O-])cc1[N+](=O)[O-] [NSC15975]	73%	>80%	90%	–
O=C1C=CC=C/C1=C\Nc1cc(C(=O)O)cc(C(=O)O)c1 [NSC124029]	93%	97%	62%	–
O=C(O)c1ccnc(C(=O)O)c1 [PD2, pyridine 2,4-dicarboxylic acids, reference compound]	21%	–	24%	demethylation activity on histones (H3K9me3, H3K36me3 western blot) (KDM4A/KDM4B [2]): blocked the demethylation activity
C/C(=N/Nc1ccc([N+](=O)[O-])cc1[N+](=O)[O-])c1ccccc1 [NSC6129]	100%	>80%	52%	–
CCCCCC/C(C)=N/Nc1ccc([N+](=O)[O-])cc1[N+](=O)[O-] [NSC1018]	85%	>80%	62%	–
O=C(O)c1ccc(C(=O)c2ccccc2C(=O)O)cc1C(=O)O [NSC28620]	–	>80%	–	inhibitory effect on KDM4A/KDM4B (in words) (KDM4A/KDM4B [3]): completely lost the inhibitory effects
O=C(O)c1ccc(O)c2ncccc12 [5-carboxy-8HQ]	–	–	–	IC50 (HeLa cells): 86.5 µM
COC1CC(OC(=O)c2ccc([N+](=O)[O-])cc2)C(OC(=O)c2ccc([N+](=O)[O-])cc2)C(C)O1 (stereo not shown) [NSC107408]	99%	>80%	64%	inhibitory effect on KDM4A/KDM4B (in words) (KDM4A/KDM4B [3]): no inhibition
COC(=O)C(C(=O)C(=O)Nc1ccc([N+](=O)[O-])cc1[N+](=O)[O-])c1nc2ccc(Cl)cc2[nH]c1=O (stereo not shown) [NSC640999]	77%	>80%	49%	–
O=[N+]([O-])c1cc([N+](=O)[O-])c(/C=C/c2ccc(Cl)c(Cl)c2)cc1/C=C/c1ccc(Cl)c(Cl)c1 [NSC636819]	–	>80%	–	expression of oncogenes IGF1R, FGFR3, CCNE2, AURKA and AURKB (LNCaP cells [4]): down-regulation; expression of tumour suppressors RB1, CDH1 (LNCaP cells [4]): up-regulation; portion of the altered genes found to be androgen responsive genes (LNCaP cells [4]; ≥two-fold alterations, 178/656): 27%; apoptotic LNCaP cells (LNCaP cells [5]): 39.5%; inhibitory mode (KDM4A; against H33-17K9me3): competitive; demethylating activity toward H3K9me3 in cells (H3K9me3 in LNCaP cells; 5 μM): essentially completely blocked; cellular level of H3K9me3 (H3K9me3 in LNCaP cells; 24 hr, dose-dependent): notable increase; IC50 at 3 days (in vitro): 21.2 µM
C/C(CC(O)(C(F)(F)F)C(F)(F)F)=N/Nc1ccc([N+](=O)[O-])cc1[N+](=O)[O-] [NSC659196]	92%	>80%	56%	–
